From patent US9499550B2 (BRISTOL-MYERS SQUIBB COMPANY, priority 2012, dated 2016)
Read-outs that look alike come from different tables or passages of the source.

Columns and labels:
[1] = system: HCV genotype 1a (H77 strain) replicon in HUH-7 cells; assay: HCV replicon luciferase reporter assay, genotype 1a; type: cell-based; settings: Hepatitis C virus, Huh-7, 72 h, HCV genotype 1a replicon luciferase, 3 days incubation
Procedure, shortened: (§1)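 Replicon inhibition for both genotypes was measured as Renilla luciferase signal (EnduRen, 7.5 μM final, 2 h) after 3-day, 37° C exposure of replicon-bearing HUH-7 cells in 4% FCS DMEM, 0.5% DMSO. The 1b construct carries S1179I; the 1a H77 construct carries P1496L and S2204I. Twenty-point, 3-fold dilutions were fitted four-parametrically for EC50, and CC50 was taken from multiplexed Cell Titer-Blue.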

[2] = system: HCV genotype 1b (Con1) replicon in HUH-7 cells; assay: HCV replicon luciferase reporter assay, genotype 1b; type: cell-based; settings: Hepatitis C virus, Huh-7, 72 h, HCV genotype 1b replicon luciferase, 3 days incubation
Procedure, shortened: as §1

[3] = GETYPE1A, read-out: LE_1a (EC50, range)
[4] = GETYPE1B, read-out: LE_1b (EC50, range)

C=COc1cnc(O[C@@H]2C[C@H]3C(=O)N[C@]4(C(=O)NS(=O)(=O)C5(C)CC5)C[C@H]4/C=C\CC[C@@H](C)C[C@@H](C)[C@H](NC(=O)OC(C)(C)C(F)(F)F)C(=O)N3C2)c2ccc(OC)cc12 [Compound 4231] gave an EC50 [1, 3] of under 5.46 nM and an EC50 [2, 4] of under 5.46 nM.
Work on COc1cc2ccnc(O[C@@H]3C[C@H]4C(=O)N[C@]5(C(=O)NS(=O)(=O)C6(CF)CC6)C[C@H]5/C=C\CC[C@@H](C)C[C@@H](C)[C@H](N)C(=O)N4C3)c2cc1F [Compound 4235, (2R,6S,7R,9R,13aS,14aR,16aS,Z)-6-amino-2-(7-fluoro-6-methoxyisoquinolin-1-yloxy)-N-(1-(fluoromethyl)cyclopropylsulfonyl)-7,9-dimethyl-5,16-dioxo-1,2,3,5,6,7,8,9,10,11,13a,14,14a,15,16,16a-hexadecahydrocyclopropa[e]pyrrolo[1,2-a][1,4]diazacyclopentadecine-14a-carboxamide] yielded an EC50 ([1]; read-out: LE_1a (EC50, range)) of 4.82 to 103 nM and an EC50 ([2]; read-out: LE_1b (EC50, range)) of 4.82 to 103 nM.
CC[C@@H]1C[C@H](C)CC/C=C\[C@@H]2C[C@@]2(C(=O)NS(=O)(=O)C2(C)CC2)NC(=O)[C@@H]2C[C@@H](Oc3ncc(OC)c4cc(OC)c(F)cc34)CN2C(=O)[C@H]1NC(=O)OC(C)(C)C(F)(F)F [Compound 4236] gave an EC50 [1, 3] of under 5.46 nM and an EC50 [2, 4] of under 5.46 nM.
With CC[C@@H]1C[C@H](C)CC/C=C\[C@@H]2C[C@@]2(C(=O)NS(=O)(=O)C2(C)CC2)NC(=O)[C@@H]2C[C@@H](Oc3ncc(N4CCOCC4)c4cc(OC)c(F)cc34)CN2C(=O)[C@H]1NC(=O)OC(C)(C)C(F)(F)F [Compound 4237] the EC50 [1, 3] was under 5.46 nM and the EC50 [2, 4] was under 5.46 nM.
For COc1cc2c(OC)cnc(O[C@@H]3C[C@H]4C(=O)N[C@]5(C(=O)NS(=O)(=O)C6(CO)CC6)C[C@H]5/C=C\CC[C@@H](C)C[C@@H](C)[C@H](NC(=O)OC(C)(C)C(F)(F)F)C(=O)N4C3)c2cc1F [Compound 4238], the EC50 [1, 3] was 4.82 to 103 nM and the EC50 [2, 4] was 4.82 to 103 nM.
CC[C@@H]1C[C@H](C)CC/C=C\[C@@H]2C[C@@]2(C(=O)NS(=O)(=O)C2CC2)NC(=O)[C@@H]2C[C@@H](Oc3ncnc4cc(OC)ccc34)CN2C(=O)[C@H]1NC(=O)OC(C)(C)C [Compound 4239, tert-butyl ((2R,6S,7R,9R,13aS,14aR,16aS,Z)-14a-((cyclopropylsulfonyl)carbamoyl)-7-ethyl-2-((7-methoxyquinazolin-4-yl)oxy)-9-methyl-5,16-dioxo-1,2,3,5,6,7,8,9,10,11,13a,14,14a,15,16,16a-hexadecahydrocyclopropa[e]pyrrolo[1,2-a][1,4]diazacyclopentadecin-6-yl)carbamate] was tested, and the EC50 ([1]; read-out: LE_1a (EC50, range)) was under 5.46 nM and the EC50 ([2]; read-out: LE_1b (EC50, range)) was under 5.46 nM.
With CC[C@@H]1C[C@H](C)CC/C=C\[C@@H]2C[C@@]2(C(=O)NS(=O)(=O)C2CC2)NC(=O)[C@@H]2C[C@@H](Oc3ncc(N4CCOCC4)c4cc(OC)c(F)cc34)CN2C(=O)[C@H]1NC(=O)OC(C)(C)C [Compound 4240, tert-butyl ((2R,6S,7R,9R,13aS,14aR,16aS,Z)-14a-((cyclopropylsulfonyl)carbamoyl)-7-ethyl-2-((7-fluoro-6-methoxy-4-morpholinoisoquinolin-1-yl)oxy)-9-methyl-5,16-dioxo-1,2,3,5,6,7,8,9,10,11,13a,14,14a,15,16,16a-hexadecahydrocyclopropa[e]pyrrolo[1,2-a][1,4]diazacyclopentadecin-6-yl)carbamate] the EC50 ([1]; read-out: LE_1a (EC50)) was 1.23 nM, the EC50 ([1]; read-out: LE_1a (EC50, range)) was 1.01 to 5 nM and the EC50 ([2]; read-out: LE_1b (EC50)) was 1.09 nM. It also gave an EC50 ([2]; read-out: LE_1b (EC50, range)) of 1.01 to 5 nM.
CC[C@@H]1C[C@H](C)CC/C=C\[C@@H]2C[C@@]2(C(=O)NS(=O)(=O)C2(C)CC2)NC(=O)[C@@H]2C[C@@H](Oc3ncc(N(C)C)c4cc(OC)ccc34)CN2C(=O)[C@H]1NC(=O)OC(C)(C)C(F)(F)F [Compound 4241] showed an EC50 [1, 3] of 1.01 to 5 nM and an EC50 [2, 4] of 1.01 to 5 nM.
Molecule COc1ccc2c(O[C@@H]3C[C@H]4C(=O)N[C@]5(C(=O)NS(=O)(=O)C6(C)CC6)C[C@H]5/C=C\CC[C@@H](C)C[C@@H](C)[C@H](NC(=O)OC(C)(C)C)C(=O)N4C3)cc(-c3ccc(OC(C)C)cc3)nc2c1 [Compound 4242, tert-butyl ((2R,6S,7R,9R,13aS,14aR,16aS,Z)-2-((2-(4-isopropoxyphenyl)-7-methoxyquinolin-4-yl)oxy)-7,9-dimethyl-14a-(((1-methylcyclopropyl)sulfonyl)carbamoyl)-5,16-dioxo-1,2,3,5,6,7,8,9,10,11,13a,14,14a,15,16,16a-hexadecahydrocyclopropa[e]pyrrolo[1,2-a][1,4]diazacyclopentadecin-6-yl)carbamate] has an EC50 ([1]; read-out: LE_1a (EC50, range)) of 0.51 to 1 nM and an EC50 ([2]; read-out: LE_1b (EC50, range)) of 0.51 to 1 nM.
For CC[C@@H]1C[C@H](C)CC/C=C\[C@@H]2C[C@@]2(C(=O)NS(=O)(=O)C2CC2)NC(=O)[C@@H]2C[C@@H](Oc3ncc(N4CCOCC4)c4cc(OC)c(F)cc34)CN2C(=O)[C@H]1NC(=O)OC(C)(C)C(F)(F)F [Compound 4243], the EC50 [1, 3] was 1.01 to 5 nM and the EC50 [2, 4] was 0.51 to 1 nM.
Work on CC[C@@H]1C[C@H](C)CC/C=C\[C@@H]2C[C@@]2(C(=O)NS(=O)(=O)C2(C)CC2)NC(=O)[C@@H]2C[C@@H](Oc3nc4cc(OC)ccc4nc3C(F)(F)F)CN2C(=O)[C@H]1NC(=O)OC(C)(C)C(F)(F)F [Compound 4244] yielded an EC50 [1, 3] of 1.01 to 5 nM and an EC50 [2, 4] of 1.01 to 5 nM.
Work on CC[C@@H]1C[C@H](C)CC/C=C\[C@@H]2C[C@@]2(C(=O)NS(=O)(=O)C2(C)CC2)NC(=O)[C@@H]2C[C@@H](Oc3cc(-n4cccn4)nc4cc(OC)ccc34)CN2C(=O)[C@H]1NC(=O)OC(C)(C)C [Compound 4245, tert-butyl ((2R,6S,7R,9R,13aS,14aR,16aS,Z)-7-ethyl-2-((7-methoxy-2-(1H-pyrazol-1-yl)quinolin-4-yl)oxy)-9-methyl-14a-(((1-methylcyclopropyl)sulfonyl)carbamoyl)-5,16-dioxo-1,2,3,5,6,7,8,9,10,11,13a,14,14a,15,16,16a-hexadecahydrocyclopropa[e]pyrrolo[1,2-a][1,4]diazacyclopentadecin-6-yl)carbamate] yielded an EC50 ([1]; read-out: LE_1a (EC50, range)) of 0.51 to 1 nM and an EC50 ([2]; read-out: LE_1b (EC50, range)) of 0.1 to 0.5 nM.
CC[C@@H]1C[C@H](C)CC/C=C\[C@@H]2C[C@@]2(C(=O)NS(=O)(=O)C2(C)CC2)NC(=O)[C@@H]2C[C@@H](Oc3cc(-n4cccn4)nc4cc(OC)ccc34)CN2C(=O)[C@H]1NC(=O)OC(C)(C)C(F)(F)F [Compound 4246] showed an EC50 [1, 3] of 1.01 to 5 nM and an EC50 [2, 4] of 0.51 to 1 nM.
With COc1ccc2c(O[C@@H]3C[C@H]4C(=O)N[C@]5(C(=O)NS(=O)(=O)C6(C)CC6)C[C@H]5/C=C\CC[C@@H](C)C[C@@H](C)[C@H](NC(=O)OC(C)(C)C(F)(F)F)C(=O)N4C3)cc(-c3ccc(OC(C)C)c(F)c3)nc2c1 [Compound 4247] the EC50 [1, 3] was 1.01 to 5 nM and the EC50 [2, 4] was 1.01 to 5 nM.
Work on CCOc1cnc(O[C@@H]2C[C@H]3C(=O)N[C@]4(C(=O)NS(=O)(=O)C5CC5)C[C@H]4/C=C\CC[C@@H](C)C[C@@H](CC)[C@H](NC(=O)OC(C)(C)C(F)(F)F)C(=O)N3C2)c2ccc(OC)cc12 [Compound 4249] yielded an EC50 [1, 3] of 1.01 to 5 nM and an EC50 [2, 4] of 0.51 to 1 nM.
With CC[C@@H]1C[C@H](C)CC/C=C\[C@@H]2C[C@@]2(C(=O)NS(=O)(=O)C2(C)CC2)NC(=O)[C@@H]2C[C@@H](Oc3nc4cc(OC)ccc4nc3C(C)C)CN2C(=O)[C@H]1NC(=O)OC(C)(C)C [Compound 4250, tert-butyl ((2R,6S,7R,9R,13aS,14aR,16aS,Z)-7-ethyl-2-((3-isopropyl-7-methoxyquinoxalin-2-yl)oxy)-9-methyl-14a-(((1-methylcyclopropyl)sulfonyl)carbamoyl)-5,16-dioxo-1,2,3,5,6,7,8,9,10,11,13a,14,14a,15,16,16a-hexadecahydrocyclopropa[e]pyrrolo[1,2-a][1,4]diazacyclopentadecin-6-yl)carbamate] the EC50 ([1]; read-out: LE_1a (EC50, range)) was 1.01 to 5 nM and the EC50 ([2]; read-out: LE_1b (EC50, range)) was 1.01 to 5 nM.
CC[C@@H]1C[C@H](C)CC/C=C\[C@@H]2C[C@@]2(C(=O)NS(=O)(=O)C2(C)CC2)NC(=O)[C@@H]2C[C@@H](Oc3nc4cc(OC)ccc4nc3C(C)C)CN2C(=O)[C@H]1NC(=O)OC(C)(C)C(F)(F)F [Compound 4251] was tested, and the EC50 [1, 3] was 1.01 to 5 nM and the EC50 [2, 4] was 1.01 to 5 nM.
CC[C@@H]1C[C@H](C)CC/C=C\[C@@H]2C[C@@]2(C(=O)NS(=O)(=O)C2CC2)NC(=O)[C@@H]2C[C@@H](Oc3ncc(OC)c4c(Cl)cccc34)CN2C(=O)[C@H]1NC(=O)OC(C)(C)C(F)(F)F [Compound 4252] was tested, and the EC50 [1, 3] was 1.01 to 5 nM and the EC50 [2, 4] was 0.51 to 1 nM.
With CC[C@@H]1C[C@H](C)CC/C=C\[C@@H]2C[C@@]2(C(=O)NS(=O)(=O)C2(C)CC2)NC(=O)[C@@H]2C[C@@H](Oc3ncc(OC)c4c(Cl)cccc34)CN2C(=O)[C@H]1NC(=O)OC(C)(C)C(F)(F)F [Compound 4253] the EC50 [1, 3] was 1.01 to 5 nM and the EC50 [2, 4] was 0.51 to 1 nM.
CC[C@@H]1C[C@H](C)CC/C=C\[C@@H]2C[C@@]2(C(=O)NS(=O)(=O)C2(C)CC2)NC(=O)[C@@H]2C[C@@H](Oc3ncc(N4CCN(S(C)(=O)=O)CC4)c4cc(OC)ccc34)CN2C(=O)[C@H]1NC(=O)OC(C)(C)C(F)(F)F [Compound 4254] was tested, and the EC50 [1, 3] was 1.01 to 5 nM and the EC50 [2, 4] was 0.51 to 1 nM.
In the case of CC[C@@H]1C[C@H](C)CC/C=C\[C@@H]2C[C@@]2(C(=O)NS(=O)(=O)C2(C)CC2)NC(=O)[C@@H]2C[C@@H](Oc3nc4cc(OC)ccc4nc3Cl)CN2C(=O)[C@H]1NC(=O)OC(C)(C)C [Compound 4256, tert-butyl ((2R,6S,7R,9R,13aS,14aR,16aS,Z)-2-((3-chloro-7-methoxyquinoxalin-2-yl)oxy)-7-ethyl-9-methyl-14a-(((1-methylcyclopropyl)sulfonyl)carbamoyl)-5,16-dioxo-1,2,3,5,6,7,8,9,10,11,13a,14,14a,15,16,16a-hexadecahydrocyclopropa[e]pyrrolo[1,2-a][1,4]diazacyclopentadecin-6-yl)carbamate], the EC50 ([1]; read-out: LE_1a (EC50, range)) is reported as 0.51 to 1 nM and the EC50 ([2]; read-out: LE_1b (EC50, range)) is reported as 0.1 to 0.5 nM.
